Consider 3 compounds from US20240216476A1, “COMBINATION OF BITTER RECEPTOR AGONIST AND GUT-SIGNALING COMPOUND” (AARDVARK THERAPEUTICS, INC., priority 2021, published 2024).

Series [1] relates to NASH in vivo models. The conditions noted are these: Male C57BL/6J mice fed AMLN diet for 32 weeks, 10 nmol/kg, SC for 12 weeks, cited from earlier work.
The conditions of series [2]: cited from earlier work; for percentage of patients in whom NASH resolution was achieved with no worsening of fibrosis: placebo 17%.
In a further series the test system is C57BL/6 mice fed on HFD. To be noted: end of study, semaglutide 25 nmol/kg every two days SC 3 weeks, cited from earlier work.
The conditions of series [3]: in vivo; cited from earlier work.
The conditions of series [4]: cited from earlier work; for TC level change from baseline / LDL level change from baseline: placebo +2%; for HDL level change from baseline: placebo +1%; for TG level change from baseline: placebo −2%; for Effect on Body Weight (placebo-adjusted change from baseline) / Effect on HbA1c (placebo-adjusted change from baseline) / Effect on Body Weight (placebo-adjusted change from baseline), percent: QD 24-26 weeks.

Series [5] has as its system AMLN-diet induced mice (fatty liver disease/NASH model). The format is in vivo. To be noted: in words. An excerpt: This Example provides the results obtained from an in vivo mouse model of fatty liver disease treatment to investigate the therapeutic effect of DA on the treatment of NASH versus positive control semaglutide (a GLP-1 agonist marketed drug for lowering HbA1c). This study used a positive control semaglutide, a vehicle control, study drug DA and a combination of semaglutide and DA. Mouse strain (B6 mice) was used, and the animals were already adults (23 weeks old) when the study began because the animals were already fed an AMLN diet for 17 weeks prior to the study being initiated. The study dose began at 75 mg/kg BID.
The study included 3 groups of 10 mice each, (A) vehicle control with distilled water by gavage BID, (B) DA by gavage BID, and (C) semaglutide […] sc QD. Body weights and changes were measured 3× per week. Serum metabolic markers (blood glucose, blood insulin, HbA1c, HDL, LDL triglycerides and bile acids) were measured at beginning of dosing (baseline) and end of study. At the end of the study, histopathology of liver samples and serum levels of inflammatory biomarkers (IL-6, TNFα, CK-18 and TGF-β) were evaluated. Histopathology was performed blindly with a scoring scale according to NAFLD Activity Score and Fibrosis Score according to Table 13. Table 14 identifies the kits and equipment used to measure serum parameters.

The conditions of series [6]: side effect incidence; cited from earlier work.
For series [7], the system named is NASH in vivo models. The series is described as follows: NASH in vivo models, summary and comparison of data from multiple studies (Table 15; first row Aardvark Therapeutics, PCT/US2022/014550). The conditions noted are these: Male C57BL/6 mice fed AMLN diet for 48 weeks; 30 mg/kg, PO, QD for 48 weeks. The source says: FIGS. 23 through 33B show data from this Example 6, which is further described above under the heading, Brief Description of the Figures. A summary and comparison of NASH in vivo data from multiple studies is shown below in Table 15. [table] […] This makes it difficult to do direct comparisons of the data. The study corresponding to the first row (called Aardvark Therapeutics) is provided in PCT Patent application PCT/US2022/014550, filed Jan. 31, 2022.

The mark [8] stands for this setting: exenatide 24 nmol/kg QD IP 4 weeks.
The mark [9] stands for this setting: semaglutide 3 mg, sitagliptin 100 mg, saxagliptin 2.5 mg, vildagliptin 50 mg, alogliptin 12.5 mg, linagliptin 5 mg.
The mark [10] stands for this setting: semaglutide 7 mg, sitagliptin 200 mg, saxagliptin 5 mg, vildagliptin 100 mg, alogliptin 25 mg.
Where [11] appears, read: semaglutide 14 mg, saxagliptin 10 mg.

Read-outs that look alike come from different tables or passages of the source. Marks after values point to notes of the source that are not given here.

Consider Semaglutide, for which, in the series with NASH in vivo models [1], the “liver TG and total cholesterol levels, plasma ALT level, and liver content of fibrosis markers” value is “Significantly decreased”. Moreover, the “liver weight and NAS overall score” value in the series on NASH in vivo models [1] (significant) is on record as “decreased liver weight”. Also, the “percentage of patients in whom NASH resolution was achieved with no worsening of fibrosis” value (from here on “percentage … with no worsening of fibrosis”) in series [2] (0.1-mg group) is 40%. The “percentage … with no worsening of fibrosis” value in series [2] (0.2-mg group) was 36%. The “mean percent weight loss” value in series [2] (0.4-mg group, placebo 1%) is 13%. Moreover, the “percentage … with no worsening of fibrosis” value in series [2] (0.4-mg group) was 59%. In addition, in series [2] (human, in vivo), the incidence of constipation is recorded as 22%, the incidence of nausea is on record as 42%, the incidence of vomiting is 15% and the “patients with malignant neoplasms” value was 1%. Besides, the “patients with neoplasms (benign, malignant, or unspecified)” value in series [2] (human, in vivo) is given as 15%. Moreover, in the series with C57BL/6 mice fed on HFD (exenatide 24 nmol/kg QD IP 4 weeks, dulaglutide 0.6 mg/kg once weekly IP 12 weeks, liraglutide 0.3 mg/kg QD SC 38 days), the “Control-adjusted Percent Change in Fasting Blood Glucose” value was −12.8%***. In addition, in the series with C57BL/6 mice fed on HFD (setting [8]), the “Control-adjusted Percent Change in Lipid Levels: TC” value is reported as “TC: −16.7%**” and the “Control-adjusted Percent Change in Lipid Levels: TG” value was “TG: −13.8%**”. In addition, in the series on C57BL/6 mice fed on HFD, the “Absolute body weight percent change” value is on record as −13.4%^## and the “Control-adjusted Percent Change in Lipid Levels: LDL” value is listed as “LDL: −9.3%*”. Besides, in series [3], the “Incidence of Hypoglycemic Episodes for Combination with Insulin (vs. Placebo)” value is given as 29.8%* and the “Incidence of Hypoglycemic Episodes for Monotherapy at the Highest Dose (vs. Placebo)” value is recorded as 3.8%. In addition, in series [4] (oral semaglutide 3 mg, 26-week trial product estimate from another clinical trial), the “TC level change from baseline” value is listed as “from baseline: −3%”. In series [4] (oral semaglutide 3 mg, 26-week), the “HDL level change from baseline” value is listed as “from baseline: 0%”, the “LDL level change from baseline” value is listed as “from baseline: −4%” and the “TG level change from baseline” value is on record as “from baseline: −5%”. Further, in series [4] (oral semaglutide 7 mg, 26-week), the “HDL level change from baseline” value is reported as “(3 mg), −2%”; the “LDL level change from baseline” value is listed as “(3 mg) ^$, −6%”; the “TC level change from baseline” value was “(3 mg) ^$$ −5%”; the “TG level change from baseline” value is “(3 mg), −9%”. In series [4] (setting [9]), the “Effect on Body Weight (placebo-adjusted change from baseline)” value was 3 mg: −0.2 kg and the “Effect on HbA1c (placebo-adjusted change from baseline)” value is given as 3 mg: −0.7%. Moreover, the “Effect on Body Weight (placebo-adjusted change from baseline), percent” value in series [4] (semaglutide 3 mg, sitagliptin 100 mg, saxagliptin 2.5 mg, vildagliptin 50 mg) is recorded as “(−0.23%)”. Moreover, in series [4] (setting [10]), the “Effect on Body Weight (placebo-adjusted change from baseline)” value was 7 mg: −1.0 kg and the “Effect on HbA1c (placebo-adjusted change from baseline)” value is recorded as 7 mg: −1.2%. For the same compound, the “Effect on Body Weight (placebo-adjusted change from baseline), percent” value in series [4] (semaglutide 7 mg, sitagliptin 200 mg, saxagliptin 5 mg, vildagliptin 100 mg) is “(−1.1%)”. In addition, in series [4] (setting [11]), the “Effect on Body Weight (placebo-adjusted change from baseline)” value is recorded as 14 mg: −2.6 kg; the “Effect on Body Weight (placebo-adjusted change from baseline), percent” value is reported as “(−3.0%)”; the “Effect on HbA1c (placebo-adjusted change from baseline)” value is given as 14 mg: −1.4%. For the same compound, in series [5] (12 weeks, DA 75 then 50 mg/kg BID by gavage, semaglutide 10 mmol/kg sc QD), the “NAFLD Activity Score based on blinded histopathologic review” value is “significantly improved NAFLD Activity Score”. Besides, the “body weight and body weight change” value in series [5] (12 weeks, DA 75 then 50 mg/kg BID, semaglutide 10 mmol/kg sc QD) was “remarkable effect on body weight”. In addition, in series [5] (end of study), the HDLs result is on record as “significantly decreased”, the LDLs entry is on record as “significantly decreased” and the TGs result is “significantly decreased”.

As to `CC[C@H](C)[C@H](NC(=O)[C@H](Cc1ccccc1)NC(=O)[C@H](CC(=O)O)NC(=O)[C@H](CCCNC(=N)N)NC(=O)[C@H](C)NC(=O)[C@H](C)NC(=O)[C@H](CC(C)C)NC(=O)[C@H](CC(N)=O)NC(=O)[C@H](CC(=O)O)NC(=O)[C@H](CC(C)C)NC(=O)[C@@H](NC(=O)[C@@H](NC(=O)[C@H](CC(N)=O)NC(=O)[C@H](CCSC)NC(=O)[C@H](CCC(=O)O)NC(=O)[C@H](CC(=O)O)NC(=O)[C@H](CO)NC(=O)[C@H](Cc1ccccc1)NC(=O)[C@H](CO)NC(=O)CNC(=O)[C@H](CC(=O)O)NC(=O)CNC(=O)[C@@H](N)Cc1c[nH]cn1)[C@@H](C)O)[C@@H](C)CC)C(=O)N[C@@H](CC(N)=O)C(=O)N[C@@H](Cc1c[nH]c2ccccc12)C(=O)N[C@@H](CC(C)C)C(=O)N[C@H](C(=O)N[C@@H](CCC(N)=O)C(=O)N[C@H](C(=O)N[C@@H](CCCCN)C(=O)N[C@H](C(=O)N[C@H](C(=O)N[C@@H](CC(=O)O)C(=O)O)[C@@H](C)O)[C@@H](C)CC)[C@@H](C)O)[C@@H](C)CC` [teduglutide], in series [6], the injection site reaction is 13%, the intestinal stoma complication is 42% and the “upper respiratory tract infection” value is on record as 21%.

With `CC(=O)[O-].CC[N+](CC)(CC(=O)Nc1c(C)cccc1C)Cc1ccccc1` [DA or ARD-101], in the series with NASH in vivo models [7], the “serum level of ALT, change” value is on record as “ALT (−43%), AST”; the “serum level of AST, change” value is “(−9.5%), and bile acid”; the “serum level of HbAlc, change” value is on record as −6.7%; the “serum level of bile acid, change” value is recorded as “(−16.2%)”. In the series with NASH in vivo models [7], the “serum level of fasting glucose, change” value was −9%; the “serum levels of GLP-1 and GLP-2” value is given as “Increased serum levels”; the “serum levels of inflammatory markers” value is given as “Lowered serum levels”; the “steatosis and fibrosis on histopathology” value was “Significantly improved”.
